Structures are written as SMILES. Like-named read-outs stand apart in the source and are kept apart here.

We go through five compounds from patent publication US12076444B2, “Methods and systems for depositing active ingredients on substrates” (Purdue Research Foundation, priority 2015, dated 2024).

Data set [1] in a line: API powder bulk density, tapped density tester. It counts as physicochemical. On the procedure:
In order to determine the solid volume fractions under which the mixtures of the micronized acetaminophen powder and NEOBEE® 895 would flow as a suspension, bulk density measurements were taken using the 350 Tapped Density Tester (Agilent Technologies, Santa Clara, Calif.), housed in an acoustic cabinet. The test was performed in accordance with ASTM standard D7481-09 (equivalent to USP Method 1) using a 100 mL graduated cylinder with drop height of 14±2 mm at a rate of 300 drops per minute. The mass of the powder sample was determined on a MS8001S NewClassic MF (Mettler Toledo, Switzerland) resulting in a bulk density of 0.36 g/cm^3 after 6000 taps, measured at 21.9° C. and 40% relative humidity.
Bulk density was determined by the same procedure described in Example 32; testing was performed at 22.1° C. and 45% relative humidity.

Data set [2] is described as follows: API particle skeletal (true) density, helium gas pycnometry. It counts as physicochemical. Particulars: mean of four powder samples, ambient about 22° C. On the procedure: The AccuPyc II 1340 Gas Displacement Pycnometry System (Micromeritics Instrument Corporation, Norcross, Ga.) was used to determine the skeletal density of the micronized acetaminophen powder. The AccuPyc II 1340 instrument determines the volume occupied by powder sample, and with knowledge of the sample mass (determined on a XS105 DualRange (Mettler Toledo, Switzerland)) the skeletal density is calculated; purge cycles function to clear the chamber of residual volatile species and occur prior to the measurement cycles. Helium gas was used as the measurement gas, and the following instrument specifications were used in each powder sample: 10 purges (purge fill pressure 19.5 psig), 10 cycles (cycle fill pressure 19.5 psig), pressure equilibration rate 0.0050 psig/min, 3.5 cm^3 cell volume. Performed at ambient conditions of 22° C. and 52% relative humidity, the density reported here corresponds to the mean value obtained from measurement of four powder samples. The density of micronized acetaminophen powder was determined to be 1.3285 g/cm^3.
Skeletal density was determined by the same procedure described in Example 31; testing was performed at ambient conditions of 22° C. and 51% relative humidity. The density reported here corresponds to the mean value obtained from measurement of four powder samples; the density of semi-fine acetaminophen powder was determined to be 1.3274 g/cm^3.
Skeletal density was determined by the same procedure described in Example 31; testing was performed at ambient conditions of 22.6° C. and 53% relative humidity. The density reported here corresponds to the mean value obtained from measurement of four powder samples; the density of mefenamic acid powder was determined to be 1.2706 g/cm^3

Data set [3] in a line: API particle size, static image analysis (Malvern Morphologi G3-ID). It counts as physicochemical. The note with it: dry powder. The procedure: The micronized acetaminophen particle size distribution was obtained using the Malvern Morphologi G3-ID, which employs static image analysis to determine morphology. Powder samples of 7 mm^3 were obtained using a standard scoop, transferred to the attached dispersion unit (operated with 0.1 bar pressure and 60 second dispersion cycle) and analyzed at 20× magnification.
Particle morphology was determined in the same manner described in Example 33, but at a magnification of 5×.

Data set [4] in a line: Raman microscopy of dosage forms. The data set is classed as physicochemical.
Procedure: After deposition of the drops onto the film, the crystal structure of the mevastatin-PEG 3350 melt formulations were analyzed with a Raman RXN1 Microprobe (Kaiser Optical Systems, MI). First the spectra of pure mevastatin and PEG 3350 solid dispersions were obtained. Mevastatin and PEG 3350 powders were heated above their melting temperatures, to 152° C. and 60° C., respectively. The melts of pure mevastatin and pure PEG 3350 were solidified at room temperature and then analyzed to obtain the spectra of pure compounds. The spectra of the melt formulation consisting of 15% mevastatin and 85% PEG 3350 were obtained by analyzing the drops of the melt formulation deposited using the dropwise additive manufacturing process.
A Thermo Scientific DRX Raman Microscope equipped with a 532 nm laser is used to analyze the solid state form of the drug present in the melt formulations. First, the spectra of pure crystalline celecoxib and gelucire 44/14 solid dispersion are obtained. Pure celecoxib and pure gelucire 44/14 are analyzed to obtain the spectra of pure compounds. […]
The form of celecoxib in the dosage forms is analyzed with a Raman microscope to investigate the effect of gelucire on crystallization of celecoxib within the deposits.
Where [5] appears, read: 15% naproxen 85% PEG 3350 melt dosage forms.

As to `CC(=O)Nc1ccc(O)cc1` [semi-fine acetaminophen, acetaminophen (paracetamol)], the Bulk density in data set [1] (after 8000 taps) came out at 0.46 g/mL. Further, the “Skeletal (true) density” value in data set [2] came out at 1.3274 g/mL. In data set [3], this compound returned a Sauter mean diameter of 47.66 μm and a d90 of 208.8 μm.

As for `COc1ccc2cc([C@H](C)C(=O)O)ccc2c1` [naproxen], the “Physical form of the drug in the dosage forms (X-ray diffraction)” value is “crystalline” under setting [5] and “crystalline” (15% naproxen 85% Pluronic F38 melt dosage forms). The “Physical form of the drug in the dosage forms (Raman)” value in data set [4] (setting [5]) was “crystalline”.

In data set [1] (after 6000 taps), `Cc1cccc(Nc2ccccc2C(=O)O)c1C` [mefenamic acid] gave a Bulk density of 0.7423 g/mL. The “Skeletal (true) density” value in data set [2] was 1.2706 g/mL. In data set [3], this compound displayed a Sauter mean diameter of 88.83 μm and a d90 of 400.5 μm.

In data set [1] (after 6000 taps), `CC(=O)Nc1ccc(O)cc1` [micronized acetaminophen, acetaminophen (paracetamol)] came in with a Bulk density of 0.36 g/mL. For the same compound, the “Skeletal (true) density” value in data set [2] was found to be 1.3285 g/mL. In data set [3], this compound showed a Sauter mean diameter of 22.05 μm and a d90 of 75.29 μm.

Consider `CC[C@H](C)C(=O)O[C@H]1CCC=C2C=C[C@H](C)[C@H](CC[C@@H]3C[C@@H](O)CC(=O)O3)[C@H]21` [mevastatin], for which the “Physical form of the drug in the dosage forms (Raman)” value in data set [4] (15% mevastatin 85% PEG 3350 melt dosage forms) is “crystalline”.
